Experimental data reported in ChEMBL document CHEMBL1149912, “Chemical fragments as foundations for understanding target space and activity prediction” (J Med Chem, 2008).

What was measured:
[1] = biological target: Sodium-dependent dopamine transporter (Homo sapiens) (UniProt Q01959); assay: Inhibition of SLC6A3
[2] = biological target: Aldo-keto reductase family 1 member B1 (Homo sapiens) (UniProt P15121); assay: Inhibition of AKR1B1
Renin (Homo sapiens) = biological target: T1, Renin (Homo sapiens) (UniProt P00797); assay: Inhibition of REN
T1 sequence (whole entry): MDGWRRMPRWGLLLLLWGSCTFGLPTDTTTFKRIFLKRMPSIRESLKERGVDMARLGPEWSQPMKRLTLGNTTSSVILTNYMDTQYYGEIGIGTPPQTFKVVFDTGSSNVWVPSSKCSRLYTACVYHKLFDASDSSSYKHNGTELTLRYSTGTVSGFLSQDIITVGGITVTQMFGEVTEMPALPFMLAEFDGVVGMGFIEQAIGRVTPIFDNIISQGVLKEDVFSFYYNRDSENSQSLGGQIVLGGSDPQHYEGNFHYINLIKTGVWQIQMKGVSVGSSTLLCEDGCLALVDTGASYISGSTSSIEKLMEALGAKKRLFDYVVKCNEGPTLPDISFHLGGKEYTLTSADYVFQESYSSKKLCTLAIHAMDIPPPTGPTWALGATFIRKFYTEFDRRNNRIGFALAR

[3] = biological target: Prothrombin (Homo sapiens) (UniProt P00734); assay: Inhibition of thrombin
[4] = biological target: T2, Cholecystokinin receptor type A (Homo sapiens) (UniProt P32238); assay: Inhibition of CCKAR
T2 sequence (whole entry): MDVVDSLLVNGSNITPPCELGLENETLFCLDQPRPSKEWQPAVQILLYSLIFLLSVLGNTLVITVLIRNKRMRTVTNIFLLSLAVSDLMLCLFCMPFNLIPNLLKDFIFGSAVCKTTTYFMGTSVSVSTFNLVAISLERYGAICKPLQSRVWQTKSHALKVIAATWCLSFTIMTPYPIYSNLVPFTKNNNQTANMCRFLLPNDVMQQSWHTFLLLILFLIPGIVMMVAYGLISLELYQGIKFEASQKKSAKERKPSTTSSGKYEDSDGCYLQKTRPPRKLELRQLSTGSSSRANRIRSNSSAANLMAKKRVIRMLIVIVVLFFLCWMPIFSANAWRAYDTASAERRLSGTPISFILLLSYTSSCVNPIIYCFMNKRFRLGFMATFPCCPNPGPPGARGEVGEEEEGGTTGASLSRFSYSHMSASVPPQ

[5] = biological target: T3, Glucocorticoid receptor (Homo sapiens) (UniProt P04150); assay: Inhibition of NR3C1
T3 sequence (whole entry): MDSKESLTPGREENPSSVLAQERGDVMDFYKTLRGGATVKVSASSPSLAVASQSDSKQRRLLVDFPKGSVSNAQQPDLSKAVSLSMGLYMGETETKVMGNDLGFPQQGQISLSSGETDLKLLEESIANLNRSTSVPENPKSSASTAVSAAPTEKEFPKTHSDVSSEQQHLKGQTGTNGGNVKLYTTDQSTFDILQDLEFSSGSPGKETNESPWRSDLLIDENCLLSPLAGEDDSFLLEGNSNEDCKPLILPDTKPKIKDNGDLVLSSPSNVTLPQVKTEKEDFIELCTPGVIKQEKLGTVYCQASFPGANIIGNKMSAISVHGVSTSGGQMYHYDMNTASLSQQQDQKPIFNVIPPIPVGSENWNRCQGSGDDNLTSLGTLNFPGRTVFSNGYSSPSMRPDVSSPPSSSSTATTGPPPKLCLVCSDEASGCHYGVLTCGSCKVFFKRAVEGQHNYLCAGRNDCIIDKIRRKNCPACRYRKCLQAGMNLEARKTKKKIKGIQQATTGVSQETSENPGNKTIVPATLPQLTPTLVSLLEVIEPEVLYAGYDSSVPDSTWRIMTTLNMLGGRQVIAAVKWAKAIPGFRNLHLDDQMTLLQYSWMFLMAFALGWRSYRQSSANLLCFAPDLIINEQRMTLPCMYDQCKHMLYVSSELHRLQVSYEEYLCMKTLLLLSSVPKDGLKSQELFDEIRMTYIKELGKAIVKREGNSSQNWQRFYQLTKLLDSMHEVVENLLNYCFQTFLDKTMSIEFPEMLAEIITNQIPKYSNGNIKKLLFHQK

[6] = biological target: Metabotropic glutamate receptor 2 (Homo sapiens) (UniProt Q14416); assay: Inhibition of GRM2
[7] = biological target: Kappa-type opioid receptor (Homo sapiens) (UniProt P41145); assay: Inhibition of OPRK1
[8] = biological target: Neprilysin (Homo sapiens) (UniProt P08473); assay: Inhibition of MME
Chain of Neprilysin (Homo sapiens) (P08473 whole entry): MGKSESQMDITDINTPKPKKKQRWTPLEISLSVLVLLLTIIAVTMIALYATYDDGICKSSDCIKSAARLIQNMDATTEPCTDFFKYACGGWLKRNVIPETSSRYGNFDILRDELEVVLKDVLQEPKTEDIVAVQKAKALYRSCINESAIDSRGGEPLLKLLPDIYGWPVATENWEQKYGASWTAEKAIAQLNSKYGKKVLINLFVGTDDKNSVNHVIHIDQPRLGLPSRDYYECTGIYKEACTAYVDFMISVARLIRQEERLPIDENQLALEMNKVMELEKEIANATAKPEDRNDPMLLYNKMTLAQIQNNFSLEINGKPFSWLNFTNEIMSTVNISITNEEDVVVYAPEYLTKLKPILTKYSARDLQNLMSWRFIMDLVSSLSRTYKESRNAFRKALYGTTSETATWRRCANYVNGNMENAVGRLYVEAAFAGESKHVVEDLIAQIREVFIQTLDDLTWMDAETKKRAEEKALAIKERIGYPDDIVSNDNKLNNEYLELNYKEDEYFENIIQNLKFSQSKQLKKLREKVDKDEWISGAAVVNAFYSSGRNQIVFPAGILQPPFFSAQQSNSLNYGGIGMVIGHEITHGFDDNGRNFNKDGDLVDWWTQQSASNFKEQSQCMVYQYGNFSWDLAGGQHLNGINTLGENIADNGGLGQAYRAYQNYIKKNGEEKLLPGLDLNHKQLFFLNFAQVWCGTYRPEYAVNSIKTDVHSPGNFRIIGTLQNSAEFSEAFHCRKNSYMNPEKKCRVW

[9] = system: NMDA receptor subunit 1, GRIN1; assay: Inhibition of GRIN1
[10] = biological target: Cathepsin B (Homo sapiens) (UniProt P07858); assay: Inhibition of CTSB
[11] = biological target: Mitogen-activated protein kinase 14 (Homo sapiens) (UniProt Q16539); assay: Inhibition of MAPK14
[12] = biological target: T4, Prostaglandin D2 receptor 2 (Homo sapiens) (UniProt Q9Y5Y4); assay: Inhibition of GPR44
T4 sequence (whole entry): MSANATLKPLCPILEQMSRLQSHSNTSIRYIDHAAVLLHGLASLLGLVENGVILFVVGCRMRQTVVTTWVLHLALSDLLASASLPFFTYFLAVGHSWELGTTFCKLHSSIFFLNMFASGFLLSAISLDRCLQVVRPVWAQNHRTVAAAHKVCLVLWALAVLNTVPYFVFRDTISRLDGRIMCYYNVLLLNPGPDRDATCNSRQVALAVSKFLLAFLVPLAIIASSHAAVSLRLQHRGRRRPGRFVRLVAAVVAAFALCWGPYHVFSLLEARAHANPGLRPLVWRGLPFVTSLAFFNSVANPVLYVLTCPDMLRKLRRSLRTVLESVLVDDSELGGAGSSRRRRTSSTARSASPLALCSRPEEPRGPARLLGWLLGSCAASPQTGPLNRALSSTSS

[13] = biological target: Voltage-dependent N-type calcium channel subunit alpha-1B (Homo sapiens) (UniProt Q00975); assay: Inhibition of CACNA1B
Chain of Voltage-dependent N-type calcium channel subunit alpha-1B (Homo sapiens) (Q00975 whole entry, looked up): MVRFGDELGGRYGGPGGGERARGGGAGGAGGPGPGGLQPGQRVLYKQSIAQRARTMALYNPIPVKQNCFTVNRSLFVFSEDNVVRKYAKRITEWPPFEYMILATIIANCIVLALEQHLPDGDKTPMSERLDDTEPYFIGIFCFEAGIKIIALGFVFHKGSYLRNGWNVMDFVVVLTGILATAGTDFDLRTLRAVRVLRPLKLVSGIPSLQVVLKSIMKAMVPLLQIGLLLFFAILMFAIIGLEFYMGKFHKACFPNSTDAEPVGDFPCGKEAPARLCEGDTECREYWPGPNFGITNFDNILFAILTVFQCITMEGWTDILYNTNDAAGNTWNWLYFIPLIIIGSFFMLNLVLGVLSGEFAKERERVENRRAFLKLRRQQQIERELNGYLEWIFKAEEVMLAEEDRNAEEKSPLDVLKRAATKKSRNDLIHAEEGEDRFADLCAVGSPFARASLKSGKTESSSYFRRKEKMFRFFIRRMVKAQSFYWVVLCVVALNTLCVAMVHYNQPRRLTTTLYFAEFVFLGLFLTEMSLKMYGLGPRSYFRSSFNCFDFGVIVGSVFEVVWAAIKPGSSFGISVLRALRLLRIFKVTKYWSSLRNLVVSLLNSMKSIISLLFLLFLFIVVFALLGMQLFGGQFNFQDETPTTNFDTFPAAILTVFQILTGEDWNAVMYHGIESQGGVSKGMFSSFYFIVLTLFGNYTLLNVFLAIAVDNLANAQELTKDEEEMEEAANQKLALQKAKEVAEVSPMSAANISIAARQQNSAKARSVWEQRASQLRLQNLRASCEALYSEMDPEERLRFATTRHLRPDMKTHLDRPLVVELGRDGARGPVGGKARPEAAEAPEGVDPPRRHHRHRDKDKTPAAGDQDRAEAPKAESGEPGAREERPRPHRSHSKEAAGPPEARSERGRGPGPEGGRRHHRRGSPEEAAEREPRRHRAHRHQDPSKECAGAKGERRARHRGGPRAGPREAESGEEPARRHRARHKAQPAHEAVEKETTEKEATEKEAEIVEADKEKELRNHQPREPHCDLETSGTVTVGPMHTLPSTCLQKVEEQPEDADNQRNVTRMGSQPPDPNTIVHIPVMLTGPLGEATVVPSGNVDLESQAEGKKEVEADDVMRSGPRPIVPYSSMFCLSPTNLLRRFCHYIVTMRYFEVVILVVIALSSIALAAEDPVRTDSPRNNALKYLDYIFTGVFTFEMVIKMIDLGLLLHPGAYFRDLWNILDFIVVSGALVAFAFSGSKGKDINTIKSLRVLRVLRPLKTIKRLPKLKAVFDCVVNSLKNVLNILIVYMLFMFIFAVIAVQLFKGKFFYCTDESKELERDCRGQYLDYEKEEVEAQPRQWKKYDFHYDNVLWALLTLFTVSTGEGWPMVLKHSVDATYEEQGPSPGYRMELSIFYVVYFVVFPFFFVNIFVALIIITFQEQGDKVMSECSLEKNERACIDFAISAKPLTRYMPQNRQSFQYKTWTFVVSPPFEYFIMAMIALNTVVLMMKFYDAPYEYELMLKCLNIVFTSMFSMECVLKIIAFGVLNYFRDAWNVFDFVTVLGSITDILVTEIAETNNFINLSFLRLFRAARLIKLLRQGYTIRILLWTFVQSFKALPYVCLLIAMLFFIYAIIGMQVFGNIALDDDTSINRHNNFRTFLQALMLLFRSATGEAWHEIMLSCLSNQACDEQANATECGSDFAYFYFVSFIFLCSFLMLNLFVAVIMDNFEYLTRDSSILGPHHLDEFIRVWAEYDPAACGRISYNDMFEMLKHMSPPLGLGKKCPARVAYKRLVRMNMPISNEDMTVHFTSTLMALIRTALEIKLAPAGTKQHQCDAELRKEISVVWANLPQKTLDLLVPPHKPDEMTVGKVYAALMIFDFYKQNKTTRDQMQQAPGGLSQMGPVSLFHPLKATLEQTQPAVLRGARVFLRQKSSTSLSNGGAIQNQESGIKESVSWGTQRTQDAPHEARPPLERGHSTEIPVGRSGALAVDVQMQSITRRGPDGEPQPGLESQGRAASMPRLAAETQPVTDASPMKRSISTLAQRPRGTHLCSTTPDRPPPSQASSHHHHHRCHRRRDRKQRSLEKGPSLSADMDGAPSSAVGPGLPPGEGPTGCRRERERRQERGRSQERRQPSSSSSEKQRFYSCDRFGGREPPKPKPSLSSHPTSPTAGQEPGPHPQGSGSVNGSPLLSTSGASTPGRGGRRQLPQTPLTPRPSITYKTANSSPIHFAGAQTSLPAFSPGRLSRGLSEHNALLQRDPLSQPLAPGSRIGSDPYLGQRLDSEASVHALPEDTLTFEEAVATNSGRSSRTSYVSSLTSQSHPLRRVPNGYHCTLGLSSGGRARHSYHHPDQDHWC

[14] = biological target: Muscarinic acetylcholine receptor M3 (Homo sapiens) (UniProt P20309); assay: Inhibition of CHRM3
Chain of Muscarinic acetylcholine receptor M3 (Homo sapiens) (P20309 whole entry, looked up): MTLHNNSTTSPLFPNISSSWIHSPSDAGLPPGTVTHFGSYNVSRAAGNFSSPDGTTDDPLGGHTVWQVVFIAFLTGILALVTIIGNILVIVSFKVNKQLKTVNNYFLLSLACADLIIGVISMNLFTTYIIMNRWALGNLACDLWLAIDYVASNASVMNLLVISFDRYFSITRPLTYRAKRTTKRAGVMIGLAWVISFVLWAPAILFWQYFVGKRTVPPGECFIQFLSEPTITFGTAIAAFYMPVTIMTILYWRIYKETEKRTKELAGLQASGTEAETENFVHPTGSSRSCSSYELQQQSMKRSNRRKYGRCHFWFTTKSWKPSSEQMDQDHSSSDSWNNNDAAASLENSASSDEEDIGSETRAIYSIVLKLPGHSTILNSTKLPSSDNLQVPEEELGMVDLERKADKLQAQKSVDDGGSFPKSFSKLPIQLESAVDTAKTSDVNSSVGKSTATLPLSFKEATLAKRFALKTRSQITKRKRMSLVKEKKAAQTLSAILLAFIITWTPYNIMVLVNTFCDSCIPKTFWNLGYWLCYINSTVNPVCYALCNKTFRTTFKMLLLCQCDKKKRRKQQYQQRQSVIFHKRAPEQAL

[15] = biological target: Stromelysin-1 (Homo sapiens) (UniProt P08254); assay: Inhibition of MMP3
Chain of Stromelysin-1 (Homo sapiens) (P08254 100-477 limits assumed): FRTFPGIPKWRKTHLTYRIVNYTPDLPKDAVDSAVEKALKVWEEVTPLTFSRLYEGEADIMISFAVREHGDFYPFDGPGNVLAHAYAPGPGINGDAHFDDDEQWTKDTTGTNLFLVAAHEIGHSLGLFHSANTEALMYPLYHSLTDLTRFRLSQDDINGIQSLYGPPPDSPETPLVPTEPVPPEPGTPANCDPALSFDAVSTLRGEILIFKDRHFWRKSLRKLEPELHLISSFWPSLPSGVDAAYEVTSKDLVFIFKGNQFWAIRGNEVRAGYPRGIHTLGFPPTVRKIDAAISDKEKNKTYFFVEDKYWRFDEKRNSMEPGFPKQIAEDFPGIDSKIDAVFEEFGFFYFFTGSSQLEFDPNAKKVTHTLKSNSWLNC

[16] = biological target: Leukotriene B4 receptor 1 (Homo sapiens) (UniProt Q15722); assay: Inhibition of LTB4R
Chain of Leukotriene B4 receptor 1 (Homo sapiens) (Q15722 whole entry): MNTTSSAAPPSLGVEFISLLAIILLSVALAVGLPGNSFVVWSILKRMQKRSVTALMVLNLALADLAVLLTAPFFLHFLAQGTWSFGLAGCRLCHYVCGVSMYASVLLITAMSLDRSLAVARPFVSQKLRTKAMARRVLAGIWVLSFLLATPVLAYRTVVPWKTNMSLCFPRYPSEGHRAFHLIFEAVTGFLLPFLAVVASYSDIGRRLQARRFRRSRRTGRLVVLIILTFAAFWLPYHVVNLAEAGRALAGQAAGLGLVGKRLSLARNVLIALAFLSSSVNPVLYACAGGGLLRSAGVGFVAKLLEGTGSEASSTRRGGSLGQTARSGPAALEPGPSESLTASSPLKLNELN

Chain of Sodium-dependent dopamine transporter (Homo sapiens) (Q01959 whole entry): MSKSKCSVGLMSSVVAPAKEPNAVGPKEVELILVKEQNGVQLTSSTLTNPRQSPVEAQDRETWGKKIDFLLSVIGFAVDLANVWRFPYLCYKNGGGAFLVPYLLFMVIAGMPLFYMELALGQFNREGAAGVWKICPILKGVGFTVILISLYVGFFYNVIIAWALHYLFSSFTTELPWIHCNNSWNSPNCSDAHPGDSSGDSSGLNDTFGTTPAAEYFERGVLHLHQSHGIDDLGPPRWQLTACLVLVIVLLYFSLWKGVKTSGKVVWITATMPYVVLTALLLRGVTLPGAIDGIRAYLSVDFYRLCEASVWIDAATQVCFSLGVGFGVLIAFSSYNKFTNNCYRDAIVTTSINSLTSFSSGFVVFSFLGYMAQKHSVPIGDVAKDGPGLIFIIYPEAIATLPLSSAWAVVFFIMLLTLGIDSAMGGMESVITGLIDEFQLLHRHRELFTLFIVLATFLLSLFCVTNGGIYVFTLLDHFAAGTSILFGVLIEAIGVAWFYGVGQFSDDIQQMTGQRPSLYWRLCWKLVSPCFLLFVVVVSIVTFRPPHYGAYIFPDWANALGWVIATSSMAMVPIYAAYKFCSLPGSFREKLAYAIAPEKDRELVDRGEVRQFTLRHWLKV

## CN1CC[C@H](c2ccc(Cl)cc2)[C@H](CSCC(=O)NCCc2ccccc2)C1
[1]
  Activity: 23 nM

## O=C(O)Cc1nn(CC(=O)Nc2cccc(F)c2)c(=O)c2ccccc12
[2]
  Activity: 22 nM

## CC(C)CC[C@@H](O)C(CC1CCCCC1)NC(=O)C(C)NC(=O)C(Cc1ccccc1)NC(=O)OC(C)(C)C (some centres undefined)
Renin (Homo sapiens)
  Activity: 200 nM

## CC(C)(C)OC(=O)NC(C(=O)N1CCC[C@H]1C(=O)NCC1CCC(N)CC1)c1ccccc1 (some centres undefined)
[3]
  Activity: 6.8 nM

## Cn1c(C(=O)Nc2ccccc2C(=O)NC(Cc2ccccc2)C(=O)O)cc2ccccc21 (centres undefined)
[4]
  Activity: 350 nM

## C[C@@]12Cc3cnn(-c4ccc(F)cc4)c3C=C1CC[C@H]1C2=CC[C@H](C(F)(F)F)[C@H]1NCc1ccc(F)cc1
[5]
  Activity: 3 nM

## N[C@@H](C(=O)O)[C@H]1[C@H](CNC(=O)Nc2ccccc2)[C@H]1C(=O)O
[6]
  Activity: 530 nM

## COC(=O)N[C@H](C(=O)N(C)[C@@H](CN1CCCC1)c1ccccc1)c1ccccc1
[7]
  Activity: 178 nM

## O=C(O)C(Cc1ccccc1)NC(=O)[C@H](Cc1ccc2c(c1)oc1ccccc12)NCP(=O)(O)O (some centres undefined)
[8]
  Activity: 12 nM

## O=C(Nc1ccccc1)NC1CC(C(=O)O)Nc2cc(Cl)cc(Cl)c21 (centres undefined)
[9]
  Activity: 2 nM

## Cc1cccc(C[C@@H](NC(=O)C(c2ccccc2)c2ccccc2)C(=O)N[C@@H](C#N)COCc2ccccc2)c1
[10]
  Activity: 10.2 nM

## Fc1ccc(CNc2nccc(-c3c(-c4ccc(F)cc4)nc4occn34)n2)cc1
[11]
  Activity: 90.9 nM

## COc1ccc(NC(=O)C(CS)Cc2ccccc2)cc1 (centres undefined)
[8]
  Activity: 26 nM

## CC(C)C[C@H](NC(=O)[C@@H](C)NC(=O)[C@@H](Cc1ccccc1)NC(=O)OC(C)(C)C)C(O)CSC(C)C (single isomer, unassigned)
Renin (Homo sapiens)
  Activity: 700 nM

## CCCC1(C(=O)Nc2cccc(F)c2)CCc2c(c3ccccc3n2CC(=O)O)C1 (centres undefined)
[12]
  Activity: 22 nM

## O=C(Nc1ncc([N+](=O)[O-])s1)C(c1ccccc1)c1ccccc1
[13]
  Activity: 250 nM

## CC(C)=CCCN1CCC(NC(=O)[C@@](O)(c2ccccc2)[C@H]2CCC(NC(=O)OCc3ccccc3)C2)CC1 (some centres undefined)
[14]
  Activity: 5.2 nM

## CCOC(=O)CN(c1cc(C)cc(OCCc2ccc(C(=N)N)cc2)c1)S(=O)(=O)c1ccccc1Cl
[3]
  Activity: 300 nM

## O=C(C[C@H](CCCc1ccc(Cl)cc1)C(=O)N[C@@H](CC1CCCCC1)C(=O)NCCc1ccccc1)NO
[15]
  Activity: 7.31 nM

## CCc1cc(-c2ccn[nH]2)c(O)cc1OCCCOc1ccc(CC(=O)O)cc1
[16]
  Activity: 54 nM

## CC(C)(C)OC(=O)N[C@@H](Cc1ccccc1)C(=O)N1CCN(C(c2ccc(F)cc2)c2ccc(F)cc2)CC1
[13]
  Activity: 250 nM

## O=C(CCC(NS(=O)(=O)c1ccc2oc3ccccc3c2c1)C(=O)O)NCCc1ccccc1 (centres undefined)
[15]
  Activity: 325 nM

## COc1ccc(NC(=O)NC2N=C(c3ccccc3)c3ccccc3N(C)C2=O)cc1 (centres undefined)
[4]
  Activity: 165 nM

## C=CCN(CC(=O)OCC)C(=O)/C(C)=C/c1ccc(C(=O)Nc2ccc(C(=N)N)cc2)cc1
[16]
  Activity: 65 nM
